Literature values in US11185497B2, “Intranasal delivery of dihydroergotamine by precision olfactory device” (Impel Neuropharma, Inc., priority 2018, dated 2021).

Conditions: in vivo

For `CN1C[C@H](C(=O)N[C@]2(C)O[C@@]3(O)[C@@H]4CCCN4C(=O)[C@H](Cc4ccccc4)N3C2=O)C[C@@H]2c3cccc4[nH]cc(c34)C[C@H]21` [DHE, Dihydroergotamine], the oral bioavailability is listed as “poor”.
